Assay results: US10939678B2, “Adjuvant compositions and related methods for reducing herbicide volatility” (BOARD OF TRUSTEES OF MICHIGAN STATE UNIVERSITY, priority 2015, dated 2021)
Counter-ions that a name gives are not always drawn.

What was measured:
[1] = approximate, by way of illustration; cited from earlier work
[2] = test system: soybean plants (PIONEER 92M92); experiment: Bioassay of herbicide volatility from sprayed wheat to soybean plants in plant growth chambers (visual soybean injury); assay type: in vivo; details: 1.12 kg a.i./ha, without any adjuvants
Source text: A wide range of soil, plant, environmental, and herbicide factors (e.g., vapor pressure and water solubility of herbicide, surface characteristics) can affect herbicide volatility from soils and plants. Comparison of the volatilization would be most readily visualized by appropriate bioassay systems. These examples illustrate a bioassay system for evaluating herbicide volatilization from plant substrates. In the bioassay system, a herbicide composition including a volatile growth regulator herbicide (2,4-D) and one or more adjuvants was applied foliarly to wheat plants (amber red wheat). Twenty minutes later, soybean plants (PIONEER 92M92 soybean plants) sensitive to the volatile growth regulator herbicide were placed in the middle of the sprayed wheat plants.
Measurement of herbicide volatility from wheat to soybean. Plant growth chambers formed from clear circular plastic containers (about 27 cm diameter) with a spacer pot in the middle were used to grow wheat plants (from amber red wheat seed) in a professional potting mix. […] The herbicide compositions were prepared and applied at a rate of 0.84 kg a.i./ha (active ingredient per hectare) at 93.5 L/ha (10 gal/acre) and 172 kPa (25 psi) using a flat fan nozzle tip (TEEJET XR8001E or equivalent; available from Spraying Systems, Co., Wheaton, Ill.).
Soybean plants (PIONEER 92M92) were seeded into 10 cm diameter round pots. A single pot with soybean plants was placed in the center of each circular plastic container 20 minutes after spraying the wheat with the respective herbicide treatment composition (i.e., with the soybean plant pot replacing the spacer pot present during wheat growth and herbicide composition application). Open clear plastic cylinders were then taped to the top of the circular containers and placed in a greenhouse. The open clear plastic cylinders were tall enough to add an open circumferential wall (about 28 cm high and having a circular top opening about 20 cm in diameter) to the plant growth chambers (i.e., with the height being relative to the soil surface for the wheat and soybean plants). Visual evaluation of soybean injury was evaluated 7, 10, 14, and 21 days after treatment/application (DAT) of the herbicide composition and continued growth under greenhouse conditions. Data were subjected to analysis of variance using PROC GLM in SAS and the results are the means of two experiments with four replications in each.
Similar trials were also performed using herbicide compositions with volatile dicamba volatile growth regulator herbicides (dimethylamine salt of dicamba (BANVEL) and diglycolamine salt of dicamba (CLARITY)) at 1.12 kg a.i./ha in place of 2,4-D and without any adjuvants.

CCCCC(CC)COC(=O)COc1ccc(Cl)cc1Cl (stereo not drawn) [2,4-D 2-ethylhexyl ester]
vapor pressure [1]: ~4.8×10^−4 Pa

CCCCOCCOC(=O)COc1ccc(Cl)cc1Cl [2,4-D butoxyethyl ester]
vapor pressure [1]: ~3.2×10^−4 Pa

CC(C)OC(=O)COc1ccc(Cl)cc1Cl [2,4-D isopropyl ester]
vapor pressure [1]: ~1.9×10^1 Pa

COc1c(Cl)ccc(Cl)c1C(=O)O [diglycolamine salt of dicamba, 3,6-dichloro-2-methoxybenzoic acid]
% injury of soybean plants from dicamba volatility ([2]; 7-DAT): about 28%
% injury of soybean plants from dicamba volatility ([2]; 14-DAT): about 31%
% injury of soybean plants from dicamba volatility ([2]; 21-DAT): about 41%

COc1c(Cl)ccc(Cl)c1C(=O)O [dimethylamine salt of dicamba, 3,6-dichloro-2-methoxybenzoic acid]
% injury of soybean plants from dicamba volatility ([2]; 7-DAT): ~39%
% injury of soybean plants from dicamba volatility ([2]; 14-DAT): ~39%
% injury of soybean plants from dicamba volatility ([2]; 21-DAT): about 41%
